The results in this text go back to PubChem BioAssay (NCI).

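Exposure lasted 48 hours, with cells grown in 96-well plates and compounds tested at five concentrations. GI50 marks 50% less growth. TGI: total growth inhibition.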 Some results are limits rather than exact numbers.

What all share (assay): NCI tumour cell line growth inhibition, 48 h
In assay [1] the test system is SNB-75 CNS.
For assay [2], the system named is HOP-62 NSCLC.
In assay [3] the test system is COLO 205 colon.
Assay [4] deals with LOX IMVI melanoma.
Assay [5] concerns UACC-257 melanoma.
Assay [6] concerns SNB-19 CNS.
The test system of assay [7] is U251 CNS.
Assay [8] concerns MALME-3M melanoma.
Assay [9] has as its system PC-3 prostate.
The test system of assay [10] is UACC-62 melanoma.

With `Cc1ccc(OCC2=NC3S/C(=C/c4ccc([N+](=O)[O-])o4)C(=O)N3N2)cc1` (centres undefined), the TGI in assay [1] was found to be 30 µM; in assay [2] it was 33.7 µM; in assay [3], 11.6 µM; in assay [4] it was 13.3 µM; in [5] it was 25.5 µM; in [6], 32.2 µM. Moreover, the TGI was found to be 29.5 µM in assay [7], 7.94 µM in [8] and 18.2 µM in [9].

Take `COc1cc(C2c3cc4c(cc3[C@@H](Nc3ccc(Oc5ccccc5)cc3)C3COC(=O)[C@H]23)OCO4)cc(OC)c1O` (some centres undefined): the TGI in assay [1] is 96.9 µM; in assay [2] it was 4.15 µM; in [3], 13 µM; in assay [10] it was 22.9 µM; in [4], over 100 µM; in [5] it was 20.1 µM. Moreover, the TGI in [6] is over 100 µM; in [7], over 27.9 µM; in assay [8] it was over 100 µM.

With `CCOC(=O)c1c(-c2cccc(Cl)c2)c(C(=O)OC)c(C)c2sc(C=O)nc12`, the TGI was over 100 µM in assay [1]; 28.8 µM in [2]; 34.4 µM in [3]; 32.2 µM in assay [10]; 28.9 µM in assay [4]; over 100 µM in [5]. Besides, the TGI in [6] is over 100 µM; in [7] it was 32.2 µM; in assay [8], 38 µM; in assay [9], 37.5 µM.

As for `Cc1cc2ccc(OC(=O)c3ccc(N=C(N)N)cc3)cc2oc1=O`, the TGI in assay [1] is 71.9 µM; in [2], 48.5 µM; in [3] it was 55.9 µM; in [10], 79.1 µM; in [4], over 100 µM; in assay [5] it was over 100 µM. Besides, the TGI in assay [6] was determined as 54.8 µM; in assay [7] it was 45.6 µM; in assay [8], 60.7 µM; in [9] it was 78.5 µM.

For the molecule `COC(=O)c1cc(NC(=O)c2cc(NC(=O)Cc3c[nH]c4ccccc34)cn2C)cn1C`, the TGI was 92.9 µM in assay [1]; over 100 µM in assay [2]; 76.3 µM in assay [3]; 60.8 µM in assay [10]; over 100 µM in [4]; 85.7 µM in [6]. Further, the results for the TGI in [8] and in assay [9] were 77.2 µM and 96.2 µM, respectively.

For `COC(=O)C1=C(OC(=O)/C=C/c2ccc(Cl)cc2)C(C(=O)OC)[C@]2(O)[C@@H](C(=O)OC)[C@H]1C[C@@H](c1ccccc1)[C@@H]2C(=O)OC` (some centres undefined), the TGI in assay [1] was over 100 µM; in [2], over 100 µM; in assay [3], over 22.2 µM; in assay [10] it was over 100 µM; in assay [4], over 70.4 µM; in assay [5], over 100 µM. Also, the TGI in assay [6] is over 95.9 µM; in assay [7], over 100 µM; in [8] it was 20.4 µM; in assay [9], over 47.6 µM.

As to `CC1C(=O)c2cc3c(cc2CCN(C)Cc2c1ccc1c2OCO1)OCO3` (centres undefined), the GI50 is over 75 µg/mL in assay [1]; over 75 µg/mL in [2]; 26.2 µg/mL in assay [3]; 45.2 µg/mL in assay [10]; 18.6 µg/mL in assay [4]; 36.1 µg/mL in [5]. Moreover, the GI50 in [6] was over 75 µg/mL; in assay [7], 67.5 µg/mL; in assay [8] it was over 75 µg/mL; in assay [9], 24 µg/mL. In addition, the TGI in [1], in assay [2], in assay [3], in [10], in assay [4] and in [5] was over 75 µg/mL throughout. Moreover, the TGI in assay [6], in assay [7], in assay [8] and in assay [9] was over 75 µg/mL each time.

Take `CS(C)(=O)=Nn1c(=O)n2n(c1=O)C1c3ccccc3C2c2ccccc21`: the TGI in [2], in assay [3], in assay [10], in assay [4], in assay [5] and in assay [6] was over 100 µM in each case. In addition, the TGI in assay [7], in assay [8] and in assay [9] was over 100 µM in each case.

On to `COc1ccc(-c2nn(-c3ccc(NC(=O)c4cc(Cl)cc(Cl)c4)cc3)cc2-c2ccncc2)cc1Cl`, for which the GI50 in assay [2] was 8.12 µM; in assay [3], over 100 µM; in assay [10] it was 5.27 µM; in [4], 3.2 µM; in assay [5], over 100 µM; in assay [6], over 100 µM. The GI50 in [7] is 1.84 µM; in assay [9] it was 5.38 µM. In addition, the TGI in assay [2], in assay [3], in [10], in assay [4], in [5] and in assay [6] was over 100 µM in each case. Also, the TGI in assay [7] and in [9] was over 100 µM in each case.

In the case of `CC1=C[C@@H](C)C[C@]2(C)CC[C@H](O2)[C@]23CC[C@](CO)(C[C@H](O2)[C@@H]2O[C@@](C)(CC2=O)[C@@H](O)[C@H]2CC[C@@]4(CCC[C@@H](O4)[C@H](C)C(=O)O[C@H]4C[C@H]([C@]5(O)OCC[C@H](C)[C@@H]5O)O[C@H]4C=C1)O2)O3`, the TGI in [1] was 0.00179 µM; in assay [2], 0.041 µM; in [3], 0.00377 µM; in assay [10], over 9.63 µM; in assay [4], 0.155 µM; in assay [7], 0.438 µM. Moreover, the TGI in assay [8] is 0.196 µM; in assay [9], over 10 µM.

As to `COC(=O)C1CC23C4=C(CCC41)CCC1CN4CC(C)C(CC(OC(C)=O)C12COC(C)=O)C43O` (centres undefined), the TGI in assay [1], in assay [2], in assay [3], in assay [10], in assay [4] and in assay [5] was over 100 µM throughout. For the same molecule, the TGI in [6], in assay [7], in [8] and in [9] was over 100 µM each time.

In the case of `Cc1n[n+]([O-])c(C)cc1[N+](=O)[O-]`, the TGI in [1] was determined as 54 µM; in assay [2], 42.7 µM; in assay [3] it was 26.3 µM; in assay [10], 31.5 µM; in assay [4], 57.9 µM; in [5], 29 µM. The TGI was over 100 µM in [6], 51.9 µM in [7], 35.3 µM in assay [8] and 65.2 µM in assay [9].
